Test results taken from patent US9822131B2, “Certain chemical entities, compositions and methods” (Intellikine LLC, priority 2008, dated 2017).

Assays:
[1] = system: collagen induced developing arthritis model; test: Rat developing type II collagen induced arthritis assay; type: in vivo
Experimental: In order to study the effects of the compounds of the present invention on the autoimmune disease arthritis, a collagen induced developing arthritis model was used. Female Lewis rats were given collagen injections at day 0. Bovine type II collagen was prepared as a 4 mg/ml solution in 0.01N acetic acid. Equal volumes of collagen and Freund's incomplete adjuvant were emulsified by hand mixing until a bead of the emulsified material held its form in water. Each rodent received a 300 μl injection of the mixture at each injection time spread over three subcutaneous sites on the back.
Oral compound administration began on day 0 and continued through day 16 with vehicle (5% NMP, 85% PEG 400, 10% Solutol) or compounds of the present invention in vehicle or control (e.g. methotrexate) at 12 hour intervals daily. Rats were weighed on days 0, 3, 6, 9-17 and caliper measurements of ankles taken on days 9-17. Final body weights were taken, and then the animals were euthanized on day 17. After euthanization, blood was drawn and hind paws and knees were removed. Blood was further processed for pharmacokinetics experiments as well as an anti-type II collagen antibody ELISA assay. Hind paws were weighed and then with the knees preserved in 10% formalin. The paws and knees were subsequently processed for microcopy. Livers, spleen and thymus were also weighed. Sciatic nerves were prepared for histopathology.
Knee and ankle joints were fixed for 1-2 days and decalcified for 4-5 days. Ankle joints were cut in half longitudinally, knees were cut in half along the frontal plane. Joints were then processed, embedded, sectioned and stained with toluidine blue. Scoring of the joints was done according to the following criteria:
Percent inhibition of paw weight and AUC was calculated using the following formula: % Inhibition=A−B/A×100 A=Mean Disease Control−Mean Normal B=Mean Treated−Mean Normal

[2] = system: established type II collagen induced arthritis; test: Rat established type II collagen induced arthritis assay; type: in vivo; conditions: oral
Experimental: In order to examine the dose responsive efficacy of the compounds of the present invention in inhibiting the inflammation, cartilage destruction and bone resorption of 7 day established type II collagen induced arthritis in rats, compounds were administered orally daily or twice daily for 6 days.
Female Lewis rats were anesthetized and given collagen injections prepared and administered as described previously on day 0. On day 6, animals were anesthetized and given a second collagen injection. Caliper measurements of normal (pre-disease) right and left ankle joints were performed on day 9. On days 10-11, arthritis typically occurred and rats were randomized into treatment groups. Randomization was performed after ankle joint swelling was obviously established and there was good evidence of bilateral disease.
After an animal was selected for enrollment in the study, treatment was initiated by the oral route. Animals were given vehicle, control (Enbrel) or compound doses, twice daily or once daily (BID or QD respectively). Dosing was administered on days 1-6 using a volume of 2.5 ml/kg (BID) or 5 ml/kg (QD) for oral solutions. Rats were weighed on days 1-7 following establishment of arthritis and caliper measurements of ankles taken every day. Final body weights were taken on day 7 and animals were euthanized.

[3] = system: adjuvant induced arthritis model; test: Adjuvant induced arthritis assay; type: in vivo
Experimental: Isoflurane-anesthetized Lewis rats (200-250 g) were implanted with an intrathecal (IT) catheter. After a 6 d recovery period, all animals except those that appeared to have sensory or motor abnormalities (fewer than 5% of the total number) were used for experiments. For IT administration, 10 μl of drug or saline followed by 10 μl of isotonic saline was injected through the catheter.
Lewis rats were immunized at the base of the tail with 0.1 ml of complete Freund's adjuvant (CFA) on day 0 several days after catheter implantation (n=6/group). Drug (e.g. one or more compounds of the present invention or vehicle) treatment was generally started on day 8 and continued daily until day 20. Clinical signs of arthritis generally begin on day 10, and paw swelling was determined every second day by water displacement plethysmometry.

[4] = system: Balb/c splenic B cells; test: B cell activation and proliferation assay (Alamar Blue); type: cell-based; conditions: Mus musculus, read-out: B cell proliferation EC50 (nM)
Experimental: The assay is performed in a 96 well microtiter plate using Alamar Blue reduction. Balb/c splenic B cells are purified over a Ficoll-Paque™ PLUS gradient followed by magnetic cell separation using a MACS B cell Isolation Kit (Miletenyi). Cells are plated in 90 ul at 50,000 cells/well in B Cell Media (RPMI+10% FBS+Penn/Strep+50 uM bME+5 mM HEPES). A compound disclosed herein is diluted in B Cell Media and added in a 10 ul volume. Plates are incubated for 30 min at 37 C and 5% CO2 (0.2% DMSO final concentration). A 50 ul B cell stimulation cocktail is then added containing either 10 ug/ml LPS or 5 ug/ml F(ab′)2 Donkey anti-mouse IgM plus 2 ng/ml recombinant mouse IL4 in B Cell Media. […] A volume of 15 uL of Alamar Blue reagent is added to each well and plates are incubated for 5 hours at 37 C and 5% CO2. Alamar Blue fluoresce is read at 560Ex/590Em, and IC50 or EC50 values are calculated using GraphPad Prism 5.

[5] = system: basophilic granulocytes; test: Basotest assay; type: cell-based; conditions: heparinized whole blood, dust mite or grass extract allergen
Experimental: The baseotest assay is performed using Orpegen Pharma Basotest reagent kit. Heparinized whole blood is pre-incubated with test compound or solvent at 37 C for 20 min. Blood is then incubated with assay kit stimulation buffer (to prime cells for response) followed by allergen (dust mite extract or grass extract) for 20 min. The degranulation process is stopped by incubating the blood samples on ice. The cells are then labeled with anti-IgE-PE to detect basophilic granulocytes, and anti-gp53-FITC to detect gp53 (a glycoprotein expressed on activated basophils). After staining red blood cells are lysed by addition of Lysing Solution. Cells are washed, and analyzed by flow cytometry.

Row | SMILES | ankle histopathology, all categories ([1]; 60 mg/kg, FIG. 4) | serum anti-type II collagen levels ([1]; 10, 20, and 60 mg/kg dosage levels, FIG. 6) | arthritis induced ankle diameter increase over time ([1]; 10, 30, and 60 mg/kg at 12 hour intervals, oral, relative to vehicle or methotrexate control) | knee histopathology ([1]; FIG. 5) | ankle histopathology (inflammation, pannus, cartilage damage, bone resorption) ([1]; oral, 12 hour intervals, FIG. 4) | mean ankle diameter increase over time ([2]; once daily dosage, FIG. 8) | mean ankle diameter increase over time ([2]; twice daily dosage, FIG. 9) | average paw volume increase ([3]; FIG. 10) | toxicity or other adverse reaction as measured by weight loss ([3]; FIG. 11, average weight over time) | EC50 [4] | inhibition of allergen induced activation of basophilic granulocytes [5]
1 | CC(=O)Nc1nc2ccc(-c3nn(Cc4cc5cccc(C)c5c(=O)n4-c4ccccc4C)c4ncnc(N)c34)cc2s1 [#53] | statistically significant reduction in all categories | significant reduction | significant reduction | dose dependent reduction | significant reduction in one or more categories | significant reduction | significant reduction | dose dependent reduction | does not exhibit toxicity or other adverse reaction | – | –
2 | CC(=O)Nc1nc2ccc(-c3nn(Cc4cc5cccc(C)c5c(=O)n4-c4ccccc4C)c4ncnc(N)c34)cc2s1 [Compound 53] | – | – | – | – | – | – | – | – | – | < 100 nM | sub micromolar range
